Consider eight compounds from patent publication US5573772A, “Methods for protecting tissues and organs from ischemic damage” (priority 1994, dated 1996).

SMILES strings stand for the structures.

In series [1] the test system is rabbit heart. Briefly: Infarct size in isolated rabbit hearts, A3-receptor mediation of preconditioning, Example 3. Conditions: BW A1433 200 nM + PC. The method, then: New Zealand white rabbits of either sex, between 1.4-2.4 kg, were anesthetized with intravenous sodium pentobarbital (30 mg/kg). The neck was opened and a tracheotomy was performed. The rabbits were ventilated with 100% oxygen via a positive pressure respirator (MD industries, Mobile, Ala.). Ventilation rate was 30-35 breaths per minute, and tidal volume was approximately 15 ml. A left thoracotomy was performed in the fourth intercostal space and pericardium was opened to expose the heart. A 2-0 silk suture with an RB taper needle was passed around a branch of the left coronary artery, and the end of the silk were threaded through a small vinyl tube to form a snare. The heads were quickly excised and mounted on a Langendorff apparatus and perfused at constant pressure with Krebs buffer containing (in mM) 118.5 NaCl, 4.7 KCl, 1.2 MgSO4, 1.2 K2 PO4, 24.3 NaHCO3, 2.5 CaCl2 and 10 glucose. […] The temperature of the perfusate was maintained at 37° C. The perfusion pressure was kept at 75 mm Hg. Pacing electrodes were placed on the right atrium and all hearts were paced at 200 beats/minute with pulses of 5 volts and 4 msec duration to keep the heart rate constant. A fluid-filled latex balloon connected to a transducer via PE240 tubing was inserted into the left ventricle. Balloon volume was adjusted to set the left ventricular diastolic pressure at 10 mm Hg at the beginning of the experiment. Total coronary artery flow was measured by timed collection of buffer from the chamber into a graduated cylinder. Regional ischemia was effected by pulling the snare tight and clamping the tube with a hemostat. Global ischemia was performed by clamping the inflow tubing of the Langendorff apparatus. Reperfusion was achieved by releasing the restriction. All hearts were allowed to equilibrate for 20 minutes before the experiments were started. Heart rate (HR), coronary flow (CF) and left ventricular developed pressure (LVDP) were recorded at the point just before and at the end of each treatment with the pacing momentarily turned off. […] The hearts were removed from the Langendorff apparatus, weighed and then frozen. The hearts were cut into 2 mm transverse slices. The slices were thawed and incubated in 1% triphenyl tetrazolium chloride (TTC) in pH 7.4 buffer for 20 minutes at 37° C. TTC reacts with NADH and dehydrogenase enzymes and stains all tissue still having them to a deep red color. […] After staining, the area of infarcted tissue (TTC negative tissue) and the risk zone (area lacking fluorescence under ultraviolet light) in each slice were traced. The area of infarct and risk zone were determined by planimetry of the tracing. The volume of infarcted myocardium and myocardium at risk was then calculated by multiplying the planimetered areas by the slice thickness. The methods utilized in this example are identical to those described in Example 1. All hearts received 30 minutes of regional ischemia as described in Example 1. The control group (n=8) hearts received only 30 minutes of ischemia. Preconditioned (PC) hearts (n=10) received 5 minutes of global ischemia and 10 minutes of reperfusion prior to the regional ischemia. Adenosine (ADO) treated hearts (n=6) received 10 μM adenosine for 5 minutes prior to regional ischemia. APNEA treated hearts (n=6) received 65 μM APNEA for 5 minutes prior to regional ischemia. In groups receiving the nonselective adenosine blocker, 8-SPT, the blocker was included in the perfusate for 15 minutes at 100 μM starting 5 minutes before the exposure of ADO (ADO-SPT group, n=6), or APNEA (APNEA-SPT group, n=6 ) or 5 minutes before and after 5 minutes of preconditioning ischemia (PC-SPT group, n=5). […] For the PC-BW group (n=5), the A3-receptor antagonist, BW A1433, [Linden J, et al., Molecular Pharmacology 44:524-532 (1993)], was administered at a dose of 200 nM in the perfusate for 5 minutes before and 5 minutes after PC ischemia.

In series [2] the test system is heart. To be noted: intercoronarily infused before an ischemic insult; cited from earlier work.
The test system of series [3] is human A3 adenosine receptor. Briefly: A3 adenosine receptor binding assay, [125I]-ABA displacement on CHO cell membranes, Example 5. As to the method: Chinese hamster ovary (CHO) cells, obtained from ATCC, expressing the cloned human A3 adenosine receptor [for example, 5 L cells or a mutagenized A3 adenosine receptor (e.g., A3K2)] were grown under standard cell culture conditions and harvested by mechanical agitation in cell culture medium. All further procedures were carried out at 4° C. The cells were disrupted using a Polytron and the resulting cell membranes collected by centrifugation at 50,000 g for 20 minutes. The pellet was suspended in 10 mM Tris-HCl buffer, pH 7.4, (10^6 cells/mL) using the Polytron and centrifuged at 50,000 g for 20 minutes. […]
For the binding assay, 50 μg of membrane protein were incubated with 0.4 nM [^125 l]-aminobenzyladenosine (ABA, custom synthesized by DuPont:NEN; specific activity=2200 Ci/mmol) in 50 mM Tris-HCl buffer, pH 7.4, containing 5 mM MgCl2 and 1 unit/mL adenosine deaminase in a total volume of 100 μL for 2 hours at room temperature. Membranes containing bound radioactivity were collected on Whatman GF/B filters using a Brandel Cell Harvester and washed 3 times with ice-cold 50 mM Tris-HCl buffer, pH 7.4. Radioactivity was quantified using a Beckman gamma counter. […] The specific binding was then calculated by subtracting this non-specific binding value from the total binding.

The subject of series [4] is A3 adenosine receptor (R226). To be noted: cited from earlier work.
Series [5] has as its system intact rabbit. Briefly: Bradycardia and mean arterial pressure in the anesthetized rabbit, Example 2. Conditions: I-APNEA 0.25 mg/kg.
Series [6] has as its system intact, blood perfused rabbit heart. Briefly: Infarct size in the intact anesthetized rabbit, 30 min ischemia and reperfusion, Example 2. To be noted: I-APNEA 0.25 mg/kg iv; control 52±4.3%, PC 9±4.1%.
Procedure: In this study, the effect of the adenosine receptor agonist, I-APNEA, on infarct size in the anesthetized rabbit was compared to the protection observed with ischemic preconditioning (PC).
New Zealand White rabbits (1.5-2.5 kg) were anaesthetized with pentobarbital sodium (40 mg/kg) administered via a catheter in a marginal ear vein. The animals were intubated with a pediatric cuffed endotracheal tube and ventilated with room air using a positive pressure respirator (Harvard Apparatus, Natick, Mass.). The heart was exposed in situ via an incision between the left 4th and 5th ribs, and a branch of the left coronary artery was isolated, using a 3-0 silk suture on RB-taper needle, for later ligation to induce 30 minutes of ischemia followed by 180 minutes of reperfusion. A catheter inserted into a femoral vein was used for administration of fluids and drugs. Infarct size was measured using the method described in the section entitled "Measurement of Infarct Size and Risk Area" in Example 1.
All animals received 30 minutes of regional ischemia, induced by tightening the suture placed around the coronary artery. Following the 30 minutes of ischemia, the suture was loosened, and reperfusion was allowed for the ensuing 180 minutes. Control animals received only the 30 minutes of ischemia and 180 minutes of reperfusion (n=9). Ischemic preconditioning (PC) was induced by 5 minutes of occlusion of the coronary artery followed by 10 minutes of reperfusion before the 30 minutes of occlusion (n=7). In a separate group of rabbits, I-APNEA was delivered intravenously as a slow bolus injection (0.25 mg/kg), beginning 15 minutes prior to the 30 minutes occlusion (n=8). In two additional groups of rabbits, the effects of the A1-selective adenosine receptor blocker, DPCPX, were tested against the effects of PC (n=6) and I-APNEA (n=8). […] At the end of 120 minutes of reperfusion, all animals were killed by an overdose of pentobarbital, and risk area and infarct size were measured.

The IC50 is the concentration that gives 50% inhibition.

Turning to `CCCn1c(=O)c2[nH]c(-c3ccc(/C=C/C(=O)O)cc3)nc2n(CCC)c1=O` [BW A1433], the “Infarct size (of the risk area)” value in series [1] stood at 26.2±3.2%.

On to `OC[C@H]1O[C@@H](n2cnc3c(NC4CCCC4)nc(Cl)nc32)[C@H](O)[C@@H]1O` [CCPA, 2-chloro-N^6-cyclopentyladenosine], for which the Ischemic preconditioning effects entry in series [2] is reported as “beneficial ischemic preconditioning effects”.

Regarding `Nc1ccc(CNc2ncnc3c2ncn3[C@@H]2O[C@H](CO)[C@@H](O)[C@H]2O)cc1I` [I-ABA, N^6-(4-amino-3-iodobenzyl)adenosine], the half-maximal inhibitory concentration (IC50) in series [3] (A3K2 line cell membranes, 0.4 nM [125I]-ABA, read-out: IC50, displacement of [125I]ABA specific binding) came out at 2 nM.

Regarding `Nc1ccc(CCNc2ncnc3c2ncn3[C@@H]2O[C@H](CO)[C@@H](O)[C@H]2O)cc1I` [I-APNEA, N^6-2-(4-amino-3-iodophenyl)ethyladenosine], the “Binding to R226” value in series [4] was “bind”. In addition, the Mean arterial pressure entry in series [5] was “fall in mean arterial pressure”. The compound also gave an Infarct size in series [6] of 17±3.8%.

On to `CCNC(=O)[C@H]1O[C@@H](n2cnc3c(N)ncnc32)[C@H](O)[C@@H]1O` [NECA, 5'-N-ethylcarboxamidoadenosine], for which the “Binding to R226” value in series [4] was “bind”.

On to `C[C@H](Cc1ccccc1)Nc1ncnc2c1ncn2[C@@H]1O[C@H](CO)[C@@H](O)[C@H]1O` [R-PIA, (R)-N-(2-phenyl-1-methylethyl)adenosine], for which the Ischemic preconditioning effects result in series [2] is on record as “beneficial ischemic preconditioning effects”.

Take `CCCn1c(=O)c2[nH]c(-c3ccc(OCC(=O)NCCN)cc3)nc2n(CCC)c1=O` [XAC]: in series [4], the “Binding to R226” value is reported as “not to bind”.

Regarding `Nc1ccc(CNc2ncnc3c2ncn3[C@@H]2O[C@H](CO)[C@@H](O)[C@H]2O)cc1[125I]` [[^125 l]ABA, [^125 l]-aminobenzyladenosine], the “Binding to human A3 receptors, affinity” value in series [3] (radiolabel, A3K2 cells) is reported as “high affinity”.
